Assay results as given in BindingDB's records for patent US11814384 (Kinnate Biopharma, 2023).

Biological target: Serine/threonine-protein kinase B-raf (Homo sapiens, UniProt P15056)
Test: Enzymatic BRAF Kinase Activity Assay
Protocol: Small molecule inhibition of the BRAF kinases was measured using ADP-Glo assay. In the assay, […], resulting in luciferase reaction and luminescent readout with light generated proportional to the relative kinase activity. Compounds diluted in DMSO were used in 10-point, 3-fold dose curve for both assays. Final concentrations of 6 nM BRAF (CarnaBio, Cat. 09-122) or 3 nM RAF1 (CarnaBio, Cat. 09-125) and 30 nM MEK1 substrate (Millipore, Cat. 14-420) were incubated with 3 µM ATP, 10 mM MgCl2, 0.003% Brij-35, 2 mM DTT, 0.05% BSA, 1 mM EGTA, and 50 mM HEPES for 90 minutes at room temp prior to addition of ADP-Glo reagent (Promega, Cat. V9102) for 40 minutes, and detection reagent for 45 minutes. Luminescence was read on an Envision plate reader (PerkinElmer) and percent remaining activity was used to calculate IC50 using a four-parameter fit model using Dotmatics Knowledge Solutions Studies curve fitting (Dotmatics, Bishops Stortford, UK, CM23).

Sequence of Serine/threonine-protein kinase B-raf (P15056 whole entry): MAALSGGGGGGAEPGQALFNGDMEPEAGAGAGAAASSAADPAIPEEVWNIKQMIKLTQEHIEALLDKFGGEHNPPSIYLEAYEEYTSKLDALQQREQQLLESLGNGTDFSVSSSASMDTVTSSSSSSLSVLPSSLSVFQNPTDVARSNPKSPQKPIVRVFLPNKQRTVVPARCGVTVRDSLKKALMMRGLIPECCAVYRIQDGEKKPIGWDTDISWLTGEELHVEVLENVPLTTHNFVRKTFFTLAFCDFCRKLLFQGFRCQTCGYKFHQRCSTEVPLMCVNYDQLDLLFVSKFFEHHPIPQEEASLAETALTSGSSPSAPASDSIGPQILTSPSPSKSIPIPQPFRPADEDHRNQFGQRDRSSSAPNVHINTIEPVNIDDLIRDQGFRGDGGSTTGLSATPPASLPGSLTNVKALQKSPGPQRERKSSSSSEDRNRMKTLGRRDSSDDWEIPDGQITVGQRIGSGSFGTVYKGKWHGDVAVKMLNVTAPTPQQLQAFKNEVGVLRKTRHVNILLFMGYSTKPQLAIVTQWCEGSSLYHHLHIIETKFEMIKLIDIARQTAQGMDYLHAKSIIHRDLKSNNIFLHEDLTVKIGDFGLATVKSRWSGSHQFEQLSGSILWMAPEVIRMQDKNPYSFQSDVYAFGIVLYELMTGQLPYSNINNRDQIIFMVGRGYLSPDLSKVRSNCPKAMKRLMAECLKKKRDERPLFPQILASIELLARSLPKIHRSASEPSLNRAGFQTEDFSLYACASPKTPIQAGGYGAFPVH

IC50 | SMILES
in the range around 5.5 nM | Cc1cc(F)c(NC(=O)c2ccnc(N(C)C(F)(F)F)c2)cc1-c1cc(N2CCOCC2)c2nccn2c1 [US11814384, Example 263]
in the range around 5.5 nM | Cc1cn2nc(-c3cc(NC(=O)c4cnn(C(C)(C)C)c4F)c(F)cc3C)cc(N3CCOCC3)c2n1 [US11814384, Example 265]
in the range around 5.5 nM | Cc1cn2cc(-c3cc(C(=O)Nc4cnn(C(C)(C)C)c4F)c(F)cc3C)cc(N3CCOCC3)c2n1 [US11814384, Example 267]
in the range around 5.5 nM | Cc1cc(F)c(NC(=O)c2cnn(C(C)(C)C)c2F)cc1-c1cc(N2CCOCC2)c2nc(C)c(F)n2c1 [US11814384, Example 273]
in the range around 5.5 nM | Cc1ccc(NC(=O)c2cnn(C(C)(C)C)c2F)cc1-c1cc(N2CCOCC2)c2nc(C)c(F)n2c1 [US11814384, Example 274]
in the range around 55 nM | Cc1nc2cc(-c3cc(NC(=O)c4cnn(C(C)(C)C)c4F)c(F)cc3C)cc(N3CCOCC3)n2n1 [US11814384, Example 282]
in the range around 5.5 nM | Cc1nc2cc(-c3cc(C(=O)Nc4cnn(C(C)(C)C)c4F)c(F)cc3C)cc(N3CCOCC3)n2n1 [US11814384, Example 283]
in the range around 5.5 nM | Cc1nc2c(N3CCOCC3)cc(-c3cc(C(=O)Nc4cnn(C(C)(C)C)c4F)c(F)cc3C)cn2n1 [US11814384, Example 285]
in the range around 55 nM | Cc1nc2cc(-c3cc(NC(=O)c4cnc(C(C)(C)C)o4)c(F)cc3C)cc(N3CCOCC3)n2n1 [US11814384, Example 291]

Continued, compound first:

SMILES | IC50
Cc1cc(F)c(NC(=O)c2coc(C(C)(C)C)n2)cc1-c1cc(N2CCOCC2)c2nccn2c1 [US11814384, Example 184] | in the range around 5.5 nM
Cc1ccc(NC(=O)c2cnc(C(C)(C)C)o2)cc1-c1cc(N2CCOCC2)c2nccn2c1 [US11814384, Example 185] | in the range around 5.5 nM
Cc1cc(F)c(NC(=O)c2cnn(C(C)(C)C)n2)cc1-c1cc(N2CCOCC2)c2nccn2c1 [US11814384, Example 186] | in the range around 5.5 nM
Cc1cc(F)c(NC(=O)c2ccnc(C34CC(C3)C4)c2)cc1-c1cc(N2CCOCC2)c2nccn2c1 [US11814384, Example 188] | in the range around 5.5 nM
Cc1cc(F)c(NC(=O)c2cnn(C(C)(C)C)c2F)cc1-c1cc(N2CCOCC2)n2ncnc2c1 [US11814384, Example 189] | in the range around 5.5 nM
Cc1cc(F)c(C(=O)Nc2cnn(C(C)(C)C)c2)cc1-c1cc(N2CCOCC2)c2nccn2c1 [US11814384, Example 204] | in the range around 5.5 nM
Cc1cc(F)c(C(=O)Nc2cccc(C(C)(C)C)c2)cc1-c1cc(N2CCOCC2)c2nccn2c1 [US11814384, Example 205] | in the range around 55 nM
Cc1cc(F)c(NC(=O)c2ccnc3c2ccn3C(C)C)cc1-c1cc(N2CCOCC2)c2nccn2c1 [US11814384, Example 206] | in the range around 5.5 nM
Cc1cc(F)c(NC(=O)c2cnn(C(C)(C)C)c2F)cc1-c1cc(N2CCOCC2)c2nnnn2c1 [US11814384, Example 220] | in the range around 55 nM
CC(C)(C)n1ncc(C(=O)Nc2cc(-c3cc(N4CCOCC4)c4nccn4c3)c(Cl)cn2)c1F [US11814384, Example 226] | in the range around 5.5 nM
Cc1cc(F)c(NC(=O)c2cnn(C(C)(C)C)c2F)cc1-c1cn2ccnc2c(N2CCOCC2)n1 [US11814384, Example 228] | in the range around 5.5 nM
Cc1cc(F)c(NC(=O)c2cc(F)n(C3(C)CC3)c2)cc1-c1cc(N2CCOCC2)c2nccn2c1 [US11814384, Example 247] | in the range around 55 nM
Cc1cc(F)c(C(=O)Nc2cnn(C(C)(C)C)c2F)cc1-c1cc(N2CCOCC2)c2nccn2n1 [US11814384, Example 260] | in the range around 5.5 nM
